pEC50: −log10 of the molar value.
Molecular target: human F508del-CFTR (Homo sapiens, UniProt P13569, DEL508-508)
Assay: F508del-CFTR cell surface expression (corrector activity), DiscoveRx ß-galactosidase complementation chemiluminescence assay in recombinant U2OS cell line;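 note: U2OS cells co-expressing ProLink-tagged F508del-CFTR and a membrane-anchored enzyme acceptor, where more surface CFTR restores β-galactosidase activity measured by chemiluminescence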
Conditions: U2OS cells, 16h compound incubation; for pEC50: EC50, F508del-CFTR cell surface expression, geomean of several measurements; for Emax: U2OS, in relation to the Emax of the corrector lumacaftor (=100%), arithmetic mean

human F508del-CFTR, sequence (P13569 with tags, fused parts or gaps DEL508-508): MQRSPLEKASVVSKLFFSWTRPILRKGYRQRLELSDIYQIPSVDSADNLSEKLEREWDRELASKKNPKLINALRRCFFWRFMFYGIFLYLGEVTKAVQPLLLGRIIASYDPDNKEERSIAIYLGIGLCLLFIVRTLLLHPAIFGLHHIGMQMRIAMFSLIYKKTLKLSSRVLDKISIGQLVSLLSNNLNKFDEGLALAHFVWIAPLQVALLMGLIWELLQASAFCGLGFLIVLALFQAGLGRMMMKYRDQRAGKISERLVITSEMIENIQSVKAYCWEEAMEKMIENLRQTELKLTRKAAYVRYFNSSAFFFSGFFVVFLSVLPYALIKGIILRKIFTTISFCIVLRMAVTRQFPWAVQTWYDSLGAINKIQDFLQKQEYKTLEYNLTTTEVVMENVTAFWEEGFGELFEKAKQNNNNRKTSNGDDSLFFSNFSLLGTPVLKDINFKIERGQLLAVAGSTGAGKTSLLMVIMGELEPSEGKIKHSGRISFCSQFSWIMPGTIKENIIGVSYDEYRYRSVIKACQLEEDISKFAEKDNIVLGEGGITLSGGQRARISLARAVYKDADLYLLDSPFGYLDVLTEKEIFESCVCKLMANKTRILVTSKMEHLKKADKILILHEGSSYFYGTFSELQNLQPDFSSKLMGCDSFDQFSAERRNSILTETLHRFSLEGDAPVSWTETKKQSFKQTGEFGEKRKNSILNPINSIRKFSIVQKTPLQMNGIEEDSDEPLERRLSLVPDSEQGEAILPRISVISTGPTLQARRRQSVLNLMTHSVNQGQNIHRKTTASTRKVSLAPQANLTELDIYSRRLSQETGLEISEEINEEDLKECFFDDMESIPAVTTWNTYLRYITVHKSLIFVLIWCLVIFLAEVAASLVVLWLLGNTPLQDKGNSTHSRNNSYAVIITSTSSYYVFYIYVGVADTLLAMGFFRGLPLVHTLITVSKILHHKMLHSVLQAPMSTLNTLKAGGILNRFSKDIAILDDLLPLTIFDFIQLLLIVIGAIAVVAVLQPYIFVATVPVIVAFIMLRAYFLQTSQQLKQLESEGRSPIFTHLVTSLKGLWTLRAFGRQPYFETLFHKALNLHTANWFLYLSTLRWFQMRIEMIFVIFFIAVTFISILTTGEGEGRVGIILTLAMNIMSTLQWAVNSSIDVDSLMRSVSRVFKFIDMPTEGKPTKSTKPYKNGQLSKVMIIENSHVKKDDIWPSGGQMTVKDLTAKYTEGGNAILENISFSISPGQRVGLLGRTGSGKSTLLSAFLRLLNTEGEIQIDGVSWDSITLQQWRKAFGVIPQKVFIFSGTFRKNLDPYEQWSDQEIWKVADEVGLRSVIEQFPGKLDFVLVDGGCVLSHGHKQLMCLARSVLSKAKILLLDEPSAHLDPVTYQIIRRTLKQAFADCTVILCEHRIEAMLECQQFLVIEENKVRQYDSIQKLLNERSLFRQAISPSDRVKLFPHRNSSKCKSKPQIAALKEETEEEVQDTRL

Row | pEC50 | Emax | Structure (SMILES)
1 | 6.64 | 393% | Cc1cc2c3c(ccc2cn1)OC[C@@H](Cc1ccccc1)NC(=O)[C@@H](Cc1nc(C(F)F)no1)N(C)C(=O)[C@H](CC(C)C)N(C)C(=O)C[C@@H](C(=O)NCCn1nnc(C2CC2)n1)NC3=O [Example 921, (3S,7S,10R,13R)-13-benzyl-N-(2-(5-cyclopropyl-2H-tetrazol-2-yl)ethyl)-10-((3-(difluoromethyl)-1,2,4-oxadiazol-5-yl)methyl)-7-isobutyl-6,9,20-trimethyl-1,5,8,11-tetraoxo-1,2,3,4,5,6,7,8,9,10,11,12,13,14-tetradecahydro-[1]oxa[4,7,10,14]tetraazacycloheptadecino[16,17-f]isoquinoline-3-carboxamide]
2 | 6.52 | 396% | COc1noc(CCNC(=O)[C@@H]2CC(=O)N(C)[C@@H](CC(C)C)C(=O)N(C)C3(CC(F)(F)C3)C(=O)N[C@H](Cc3ccccc3)COc3ccc4ncc(F)cc4c3C(=O)N2)n1 [Example 922, (3′S,7′S,13′R)-13′-benzyl-3,3,20′-trifluoro-7′-isobutyl-N-(2-(3-methoxy-1,2,4-oxadiazol-5-yl)ethyl)-6′,9′-dimethyl-1′,5′,8′,11′-tetraoxo-2′,3′,4′,5′,6′,7′,8′,9′,11′,12′,13′,14′-dodecahydro-1′H-spiro[cyclobutane-1,10′-[1]oxa[4,7,10,14]tetraazacycloheptadecino[16,17-f]quinoline]-3′-carboxamide]
3 | 7.59 | 500% | Cc1cc2c(c3cccnc13)C(=O)N[C@H](C(=O)NCCn1nnc(C3CC3)n1)CC(=O)N(C)[C@@H](CC(C)C)C(=O)N(C)[C@H](Cc1nc(C(F)(F)F)no1)C(=O)N[C@H](Cc1ccccc1)CO2 [Example 923, (3S,7S,10R,13R)-13-benzyl-N-(2-(5-cyclopropyl-2H-tetrazol-2-yl)ethyl)-7-isobutyl-6,9,17-trimethyl-1,5,8,11-tetraoxo-10-((3-(trifluoromethyl)-1,2,4-oxadiazol-5-yl)methyl)-1,2,3,4,5,6,7,8,9,10,11,12,13,14-tetradecahydro-[1]oxa[4,7,10,14]tetraazacycloheptadecino[16,17-f]quinoline-3-carboxamide]
4 | 7.48 | 409% | CC(C)C[C@H]1C(=O)N(C)[C@H](Cc2nc(C(F)(F)F)no2)C(=O)N[C@H](Cc2ccccc2)COc2ccc3ncc(F)cc3c2C(=O)N[C@H](C(=O)NCCn2nnc(C3CC3)n2)CC(=O)N1C [Example 924, (3S,7S,10R,13R)-13-benzyl-N-(2-(5-cyclopropyl-2H-tetrazol-2-yl)ethyl)-20-fluoro-7-isobutyl-6,9-dimethyl-1,5,8,11-tetraoxo-10-((3-(trifluoromethyl)-1,2,4-oxadiazol-5-yl)methyl)-1,2,3,4,5,6,7,8,9,10,11,12,13,14-tetradecahydro-[1]oxa[4,7,10,14]tetraazacycloheptadecino[16,17-f]quinoline-3-carboxamide]
5 | 7.04 | 286% | CC(C)C[C@H]1C(=O)N(C)[C@H](Cc2nc(C(F)(F)F)no2)C(=O)N[C@H](Cc2ccccc2)COc2ccc3ncc(F)cc3c2C(=O)N[C@H](C(=O)NCCCOC(F)(F)F)CC(=O)N1C [Example 925, (3S,7S,10R,13R)-13-benzyl-20-fluoro-7-isobutyl-6,9-dimethyl-1,5,8,11-tetraoxo-N-(3-(trifluoromethoxy)propyl)-10-((3-(trifluoromethyl)-1,2,4-oxadiazol-5-yl)methyl)-1,2,3,4,5,6,7,8,9,10,11,12,13,14-tetradecahydro-[1]oxa[4,7,10,14]tetraazacycloheptadecino[16,17-f]quinoline-3-carboxamide]
6 | 6.12 | 416% | COc1cc(CCNC(=O)[C@@H]2CC(=O)N(C)[C@@H](CC(C)C)C(=O)N(C)[C@]3(C[C@H](OC)C3)C(=O)N[C@H](Cc3ccccc3)COc3ccc4ncc(F)cc4c3C(=O)N2)on1 [Example 926, (1r,3S,3′S,7′S,13′R)-13′-benzyl-20′-fluoro-7′-isobutyl-3-methoxy-N-(2-(3-methoxyisoxazol-5-yl)ethyl)-6′,9′-dimethyl-1′,5′,8′,11′-tetraoxo-2′,3′,4′,5′,6′,7′,8′,9′,11′,12′,13′,14′-dodecahydro-1′H-spiro[cyclobutane-1,10′-[1]oxa[4,7,10,14]tetraazacycloheptadecino[16,17-f]quinoline]-3′-carboxamide]
7 | 7.57 | 492% | COc1noc(CCNC(=O)[C@@H]2CC(=O)N(C)[C@@H](CC(C)C)C(=O)N(C)[C@H](Cc3nc(C(F)(F)F)no3)C(=O)N[C@H](Cc3ccccc3)COc3cc(C)c4ncccc4c3C(=O)N2)n1 [Example 927, (3S,7S,10R,13R)-13-benzyl-7-isobutyl-N-(2-(3-methoxy-1,2,4-oxadiazol-5-yl)ethyl)-6,9,17-trimethyl-1,5,8,11-tetraoxo-10-((3-(trifluoromethyl)-1,2,4-oxadiazol-5-yl)methyl)-1,2,3,4,5,6,7,8,9,10,11,12,13,14-tetradecahydro-[1]oxa[4,7,10,14]tetraazacycloheptadecino[16,17-f]quinoline-3-carboxamide]
8 | 6.01 | 247% | Cc1cc2c(c3cccnc13)C(=O)N[C@H](C(=O)NCCn1nnc(C3CC3)n1)CC(=O)N(C)[C@@H](CC(C)C)C(=O)N1CCCCC1C(=O)N[C@H](Cc1ccccc1)CO2 (stereo partly drawn) [Example 928, (9S,13S,19aS,22R)-22-benzyl-N-(2-(5-cyclopropyl-2H-tetrazol-2-yl)ethyl)-13-isobutyl-2,12-dimethyl-7,11,14,20-tetraoxo-7,8,9,10,11,12,13,14,17,18,19,19a,20,21,22,23-hexadecahydro-16H-pyrido[2′,1′:6,7][1]oxa[4,7,10,14]tetraazacycloheptadecino[16,17-f]quinoline-9-carboxamide]
9 | 6.51 | 513% | CCOCC[C@@H]1C(=O)N[C@H](Cc2ccccc2)COc2ccc3ncc(F)cc3c2C(=O)N[C@H](C(=O)NCCc2nc(OC)no2)CC(=O)N(C)[C@@H](CC(C)C)C(=O)N1C [Example 929, (3S,7S,10R,13R)-13-benzyl-10-(2-ethoxyethyl)-20-fluoro-7-isobutyl-N-(2-(3-methoxy-1,2,4-oxadiazol-5-yl)ethyl)-6,9-dimethyl-1,5,8,11-tetraoxo-1,2,3,4,5,6,7,8,9,10,11,12,13,14-tetradecahydro-[1]oxa[4,7,10,14]tetraazacycloheptadecino[16,17-f]quinoline-3-carboxamide]
10 | 6.85 | 460% | COc1noc(CCNC(=O)[C@@H]2CC(=O)N(C)[C@@H](CC(C)C)C(=O)N3CCCC[C@@H]3C(=O)N[C@H](Cc3ccccc3)COc3cnc4ccc(F)cc4c3C(=O)N2)n1 [Example 930, (9S,13S,19aR,22R)-22-benzyl-5-fluoro-13-isobutyl-N-(2-(3-methoxy-1,2,4-oxadiazol-5-yl)ethyl)-12-methyl-7,11,14,20-tetraoxo-7,8,9,10,11,12,13,14,17,18,19,19a,20,21,22,23-hexadecahydro-16H-pyrido[2′,1′:6,7][1]oxa[4,7,10,14]tetraazacycloheptadecino[17,16-c]quinoline-9-carboxamide]
11 | 6.53 | 507% | COc1cc(CCNC(=O)[C@@H]2CC(=O)N(C)[C@@H](CC(C)C)C(=O)N(C)[C@H](CC(F)F)C(=O)N[C@H](Cc3ccccc3)COc3ccc4cnc(C)cc4c3C(=O)N2)on1 [Example 931, (3S,7S,10R,13R)-13-benzyl-10-(2,2-difluoroethyl)-7-isobutyl-N-(2-(3-methoxyisoxazol-5-yl)ethyl)-6,9,20-trimethyl-1,5,8,11-tetraoxo-1,2,3,4,5,6,7,8,9,10,11,12,13,14-tetradecahydro-[1]oxa[4,7,10,14]tetraazacycloheptadecino[16,17-f]isoquinoline-3-carboxamide]
12 | 6.43 | 491% | COc1noc(CCNC(=O)[C@@H]2CC(=O)N(C)[C@@H](CC(C)C)C(=O)N(C)[C@H](CC(F)F)C(=O)N[C@H](Cc3ccccc3)COc3ccc4cnc(C)cc4c3C(=O)N2)n1 [Example 932, (3S,7S,10R,13R)-13-benzyl-10-(2,2-difluoroethyl)-7-isobutyl-N-(2-(3-methoxy-1,2,4-oxadiazol-5-yl)ethyl)-6,9,20-trimethyl-1,5,8,11-tetraoxo-1,2,3,4,5,6,7,8,9,10,11,12,13,14-tetradecahydro-[1]oxa[4,7,10,14]tetraazacycloheptadecino[16,17-f]isoquinoline-3-carboxamide]
13 | 6.40 | 485% | Cc1cc2c3c(ccc2cn1)OC[C@@H](Cc1ccccc1)NC(=O)[C@@H](CC(F)F)N(C)C(=O)[C@H](CC(C)C)N(C)C(=O)C[C@@H](C(=O)NCCn1nnc(C2CC2)n1)NC3=O [Example 933, (3S,7S,10R,13R)-13-benzyl-N-(2-(5-cyclopropyl-2H-tetrazol-2-yl)ethyl)-10-(2,2-difluoroethyl)-7-isobutyl-6,9,20-trimethyl-1,5,8,11-tetraoxo-1,2,3,4,5,6,7,8,9,10,11,12,13,14-tetradecahydro-[1]oxa[4,7,10,14]tetraazacycloheptadecino[16,17-f]isoquinoline-3-carboxamide]
14 | 7.43 | 528% | COc1noc(CCNC(=O)[C@@H]2CC(=O)N(C)[C@@H](CC(C)C)C(=O)N(C)[C@H](Cc3nc(C(F)(F)F)no3)C(=O)N[C@H](Cc3ccccc3)COc3ccc4ncc(F)cc4c3C(=O)N2)n1 [Example 934, (3S,7S,10R,13R)-13-benzyl-20-fluoro-7-isobutyl-N-(2-(3-methoxy-1,2,4-oxadiazol-5-yl)ethyl)-6,9-dimethyl-1,5,8,11-tetraoxo-10-((3-(trifluoromethyl)-1,2,4-oxadiazol-5-yl)methyl)-1,2,3,4,5,6,7,8,9,10,11,12,13,14-tetradecahydro-[1]oxa[4,7,10,14]tetraazacycloheptadecino[16,17-f]quinoline-3-carboxamide]

— US20240208992A1, “MACROCYCLES AS CFTR MODULATORS” (Idorsia Pharmaceuticals Ltd, priority 2021, published 2024)
